Measurements: PubChem BioAssay (NCI)
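All cell lines were grown in 96-well plates and treated with compound for 48 hours. TGI marks complete inhibition of growth.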

Assays:
Assay in all cases: DTP human tumour cell line panel, 48 h
HT29 colon = test system: HT29 colon
NCI/ADR-RES ovarian = test system: NCI/ADR-RES ovarian
SK-MEL-5 melanoma = test system: SK-MEL-5 melanoma
SF-295 CNS = test system: SF-295 CNS
ACHN renal = test system: ACHN renal
RXF 393 renal = test system: RXF 393 renal
A498 renal = test system: A498 renal
CAKI-1 renal = test system: CAKI-1 renal
DU-145 prostate = test system: DU-145 prostate
SW-620 colon = test system: SW-620 colon
HL-60(TB) leukemia = test system: HL-60(TB) leukemia
HCT-116 colon = test system: HCT-116 colon
MDA-MB-435 = test system: MDA-MB-435
T-47D breast = test system: T-47D breast
BT-549 breast = test system: BT-549 breast
UO-31 renal = test system: UO-31 renal
OVCAR-8 ovarian = test system: OVCAR-8 ovarian
EKVX NSCLC = test system: EKVX NSCLC
HCC-2998 colon = test system: HCC-2998 colon
NCI-H522 lung = test system: NCI-H522 lung
M14 melanoma = test system: M14 melanoma
OVCAR-3 ovarian = test system: OVCAR-3 ovarian
UACC-257 melanoma = test system: UACC-257 melanoma
OVCAR-4 ovarian = test system: OVCAR-4 ovarian
MDA-MB-231 breast = test system: MDA-MB-231 breast
COLO 205 colon = test system: COLO 205 colon
NCI-H460 lung = test system: NCI-H460 lung
UACC-62 melanoma = test system: UACC-62 melanoma
NCI-H226 lung = test system: NCI-H226 lung
SK-MEL-28 melanoma = test system: SK-MEL-28 melanoma
HOP-92 NSCLC = test system: HOP-92 NSCLC
OVCAR-5 ovarian = test system: OVCAR-5 ovarian
MCF7 breast = test system: MCF7 breast
SNB-19 CNS = test system: SNB-19 CNS
MALME-3M melanoma = test system: MALME-3M melanoma
SN12C renal = test system: SN12C renal
SNB-75 CNS = test system: SNB-75 CNS
SR leukemia = test system: SR leukemia
SK-OV-3 ovarian = test system: SK-OV-3 ovarian
CCRF-CEM leukemia = test system: CCRF-CEM leukemia
A549 NSCLC = test system: A549 NSCLC
RPMI-8226 leukemia = test system: RPMI-8226 leukemia
HCT-15 colon = test system: HCT-15 colon
LOX IMVI melanoma = test system: LOX IMVI melanoma
MOLT-4 leukemia = test system: MOLT-4 leukemia
K-562 leukemia = test system: K-562 leukemia
MDA-N = test system: MDA-N
786-0 renal = test system: 786-0 renal
U251 CNS = test system: U251 CNS
SF-268 CNS = test system: SF-268 CNS
TK-10 renal = test system: TK-10 renal
HOP-62 NSCLC = test system: HOP-62 NSCLC
SK-MEL-2 melanoma = test system: SK-MEL-2 melanoma
PC-3 prostate = test system: PC-3 prostate
IGROV1 ovarian = test system: IGROV1 ovarian
KM12 colon = test system: KM12 colon
HS 578T breast = test system: HS 578T breast
SF-539 CNS = test system: SF-539 CNS
NCI-H23 lung = test system: NCI-H23 lung
M19-MEL melanoma = test system: M19-MEL melanoma
DMS 273 small cell lung = test system: DMS 273 small cell lung
HOP-18 NSCLC = test system: HOP-18 NSCLC
KM20L2 colon = test system: KM20L2 colon
LXFL 529 NSCLC = test system: LXFL 529 NSCLC
SNB-78 CNS = test system: SNB-78 CNS
DLD-1 colon = test system: DLD-1 colon
DMS 114 small cell lung = test system: DMS 114 small cell lung

## C[N+]12CCCCC1C(CN1C(=O)c3ccccc3C1=O)CCC2 (stereo not drawn)
HT29 colon
  TGI: > 100 µM
NCI/ADR-RES ovarian
  TGI: > 100 µM
SK-MEL-5 melanoma
  TGI: > 100 µM
SF-295 CNS
  TGI: > 100 µM
ACHN renal
  TGI: > 100 µM
RXF 393 renal
  TGI: > 100 µM
A498 renal
  TGI: > 100 µM
CAKI-1 renal
  TGI: > 100 µM
DU-145 prostate
  TGI: > 100 µM
SW-620 colon
  TGI: > 100 µM
HL-60(TB) leukemia
  TGI: > 100 µM
HCT-116 colon
  TGI: > 100 µM
MDA-MB-435
  TGI: > 100 µM
T-47D breast
  TGI: > 100 µM
BT-549 breast
  TGI: > 100 µM
UO-31 renal
  TGI: > 100 µM
OVCAR-8 ovarian
  TGI: > 100 µM
EKVX NSCLC
  TGI: > 100 µM
HCC-2998 colon
  TGI: > 100 µM
NCI-H522 lung
  TGI: > 100 µM
M14 melanoma
  TGI: > 100 µM
OVCAR-3 ovarian
  TGI: > 100 µM
UACC-257 melanoma
  TGI: > 100 µM
OVCAR-4 ovarian
  TGI: > 100 µM
MDA-MB-231 breast
  TGI: > 100 µM
COLO 205 colon
  TGI: > 100 µM
NCI-H460 lung
  TGI: > 100 µM
UACC-62 melanoma
  TGI: > 100 µM
NCI-H226 lung
  TGI: > 100 µM
SK-MEL-28 melanoma
  TGI: > 100 µM
HOP-92 NSCLC
  TGI: > 100 µM
OVCAR-5 ovarian
  TGI: > 100 µM
MCF7 breast
  TGI: > 100 µM
SNB-19 CNS
  TGI: > 100 µM
MALME-3M melanoma
  TGI: > 100 µM
SN12C renal
  TGI: > 100 µM
SNB-75 CNS
  TGI: > 100 µM
SR leukemia
  TGI: > 100 µM
SK-OV-3 ovarian
  TGI: > 100 µM
CCRF-CEM leukemia
  TGI: > 100 µM
A549 NSCLC
  TGI: > 100 µM
RPMI-8226 leukemia
  TGI: > 100 µM
HCT-15 colon
  TGI: > 100 µM
LOX IMVI melanoma
  TGI: > 100 µM
MOLT-4 leukemia
  TGI: > 100 µM
K-562 leukemia
  TGI: > 100 µM
MDA-N
  TGI: > 100 µM
786-0 renal
  TGI: > 100 µM
U251 CNS
  TGI: > 100 µM
SF-268 CNS
  TGI: > 100 µM
TK-10 renal
  TGI: > 100 µM
HOP-62 NSCLC
  TGI: > 100 µM
SK-MEL-2 melanoma
  TGI: > 100 µM
PC-3 prostate
  TGI: > 100 µM
IGROV1 ovarian
  TGI: > 100 µM
KM12 colon
  TGI: > 100 µM
HS 578T breast
  TGI: > 100 µM
SF-539 CNS
  TGI: > 100 µM
NCI-H23 lung
  TGI: > 100 µM

## CC(=O)C1=NN(c2ccccc2)C2(S1)SC(c1ccccc1)(c1ccccc1)c1ccccc12 (stereo not drawn)
M19-MEL melanoma
  TGI: > 100 µM
HT29 colon
  TGI: > 100 µM
SF-295 CNS
  TGI: > 100 µM
DMS 273 small cell lung
  TGI: 73.6 µM
ACHN renal
  TGI: > 100 µM
HOP-18 NSCLC
  TGI: > 100 µM
RXF 393 renal
  TGI: 65.7 µM
A498 renal
  TGI: > 100 µM
SW-620 colon
  TGI: > 100 µM
HL-60(TB) leukemia
  TGI: > 100 µM
HCT-116 colon
  TGI: > 100 µM
UO-31 renal
  TGI: > 100 µM
OVCAR-8 ovarian
  TGI: > 100 µM
EKVX NSCLC
  TGI: > 100 µM
HCC-2998 colon
  TGI: > 100 µM
NCI-H522 lung
  TGI: 80.1 µM
M14 melanoma
  TGI: > 100 µM
OVCAR-3 ovarian
  TGI: > 100 µM
UACC-257 melanoma
  TGI: > 100 µM
OVCAR-4 ovarian
  TGI: 79.6 µM
COLO 205 colon
  TGI: > 100 µM
NCI-H460 lung
  TGI: > 100 µM
UACC-62 melanoma
  TGI: 48.7 µM
NCI-H226 lung
  TGI: > 100 µM
SK-MEL-28 melanoma
  TGI: > 100 µM
HOP-92 NSCLC
  TGI: 46.1 µM
KM20L2 colon
  TGI: > 100 µM
SNB-19 CNS
  TGI: > 100 µM
MALME-3M melanoma
  TGI: > 100 µM
SN12C renal
  TGI: > 100 µM
SNB-75 CNS
  TGI: 71.1 µM
LXFL 529 NSCLC
  TGI: > 100 µM
SR leukemia
  TGI: > 100 µM
SK-OV-3 ovarian
  TGI: > 100 µM
CCRF-CEM leukemia
  TGI: > 100 µM
A549 NSCLC
  TGI: > 100 µM
RPMI-8226 leukemia
  TGI: > 100 µM
HCT-15 colon
  TGI: > 100 µM
LOX IMVI melanoma
  TGI: > 100 µM
MOLT-4 leukemia
  TGI: > 100 µM
SNB-78 CNS
  TGI: > 100 µM
K-562 leukemia
  TGI: > 100 µM
786-0 renal
  TGI: > 100 µM
U251 CNS
  TGI: > 100 µM
SF-268 CNS
  TGI: > 100 µM
TK-10 renal
  TGI: > 100 µM
HOP-62 NSCLC
  TGI: > 100 µM
SK-MEL-2 melanoma
  TGI: 78.7 µM
IGROV1 ovarian
  TGI: > 100 µM
DLD-1 colon
  TGI: > 100 µM
DMS 114 small cell lung
  TGI: > 100 µM
KM12 colon
  TGI: > 100 µM
SF-539 CNS
  TGI: > 100 µM
NCI-H23 lung
  TGI: > 100 µM
